Reference: PMC6896057, “Dual PDK1/Aurora Kinase A Inhibitors Reduce Pancreatic Cancer Cell Proliferation and Colony Formation” (Cancers, 2019)

Experiments:
Type in all cases: cell-based, human
[1] = system: phosphorylation of Aurora A at Thr288 in HPAF-II; assay: Western blot, Aurora A phosphorylation at Thr288, nocodazole-synchronized cells; details: 10 µM, 1 h, nocodazole 200 ng/mL
Procedure: (§1) Lysates were then assessed by Western blotting using the indicated antibodies. Representative blots of at least three independent experiments are shown. In all blots, Akt total (A,B) and α-actinin (C,D) were used as loading control. In (A,B) membranes incubated with pAkt (Thr308) were stripped and re-incubated with anti Akt. The percentage of phosphorylated Akt is calculated by normalization to the loading control total Akt. In (C,D) membranes incubated with pAurora (Thr288) were stripped and re-incubated with anti-Aurora A. The percentage of phosphorylated Aurora A is calculated by normalization to the loading control α-actinin.
(§2) Cells (300,000 per well) from different cell lines were seeded in six-well plates. The next day, five wells were stimulated with nocodazole 200 ng/mL for 24 h. […] To analyze the expression of phosphorylated PLCγ, cells were incubated overnight in serum-free culture media. […] Supernatants were transferred in a 1.5 mL Eppendorf tube and protein concentrations were determined using the Direct Detect Assay-Free cards and the Direct Detect Spectrometer (Merck Millipore, Decantur, IL, USA). […]

[2] = system: phosphorylation of Aurora A at Thr288 in AsPC-1; assay: as above; details: 10 µM, 1 h, nocodazole 200 ng/mL
Procedure: as §1, §2

[3] = system: PLK1 Thr210 phosphorylation in AsPC-1; assay: Western blot, phosphorylation of PLK1 at Thr210, nocodazole-synchronized cells; details: 5 μM, 1 h, nocodazole 200 ng/mL
Procedure: (§3) Lysates were then assessed by Western blotting using the indicated antibodies. Representative blots of at least three independent experiments are shown. The percentage of phosphorylated PLCγ1 is calculated by normalization to the loading control GAPDH. […] The percentage of phosphorylated PLK1 is calculated by normalization to the loading control α-actinin. […] The percentage of phosphorylated Histone H3 is calculated by normalization to the loading control α-actinin.
(§4) Cells (300,000 per well) from different cell lines were seeded in six-well plates. The next day, five wells were stimulated with nocodazole 200 ng/mL for 24 h. […] To analyze the expression of phosphorylated PLCγ, cells were incubated overnight in serum-free culture media. […] Cells were then collected by scraping and lysed in cold radioimmunoprecipitation assay buffer (150 mM sodium chloride, 1.0% NP-40 or Triton X-100, 0.5% sodium deoxycholate, 0.1% sodium dodecyl sulphate, 50 mM Tris HCl, pH 8.0) supplemented with 1X Protease/Phosphatase Inhibitor Cocktail (100X stock, Sigma Aldrich, St. Louis, MO, USA). Lysates were sonicated at 4 °C and centrifuged at 10,000 g for 10 min at 4 °C. Supernatants were transferred in a 1.5 mL Eppendorf tube and protein concentrations were determined using the Direct Detect Assay-Free cards and the Direct Detect Spectrometer (Merck Millipore, Decantur, IL, USA). […]

[4] = system: PLK1 Thr210 phosphorylation in HPAF-II; assay: as above; details: 5 μM, 1 h, nocodazole 200 ng/mL
Procedure: as §3, §4

[5] = system: PLCγ1 Tyr783 phosphorylation in HPAF-II; assay: Western blot, EGF-induced phosphorylation of PLCγ1 at Tyr783; details: 5 μM, 30 min, then EGF 25 ng/mL 10 min
Procedure: as §3
(§5) Cells (300,000 per well) from different cell lines were seeded in six-well plates. The next day, five wells were stimulated with nocodazole 200 ng/mL for 24 h. Then four wells were treated for 2 h with the inhibitors of interest. To analyze the expression of phosphorylated PLCγ, cells were incubated overnight in serum-free culture media. […] Cells were then collected by scraping and lysed in cold radioimmunoprecipitation assay buffer (150 mM sodium chloride, 1.0% NP-40 or Triton X-100, 0.5% sodium deoxycholate, 0.1% sodium dodecyl sulphate, 50 mM Tris HCl, pH 8.0) supplemented with 1X Protease/Phosphatase Inhibitor Cocktail (100X stock, Sigma Aldrich, St. Louis, MO, USA). […] Supernatants were transferred in a 1.5 mL Eppendorf tube and protein concentrations were determined using the Direct Detect Assay-Free cards and the Direct Detect Spectrometer (Merck Millipore, Decantur, IL, USA). […]

[6] = system: phosphorylation of Akt at Thr308 in HPAF-II; assay: Western blot, FBS-induced phosphorylation of Akt at Thr308; details: 5 μM, FBS 1 h
Procedure: as §1
(§6) Cells (300,000 per well) from different cell lines were seeded in six-well plates. The next day, five wells were stimulated with nocodazole 200 ng/mL for 24 h. Then four wells were treated for 2 h with the inhibitors of interest. To analyze the expression of phosphorylated PLCγ, cells were incubated overnight in serum-free culture media. […] Supernatants were transferred in a 1.5 mL Eppendorf tube and protein concentrations were determined using the Direct Detect Assay-Free cards and the Direct Detect Spectrometer (Merck Millipore, Decantur, IL, USA). […]

[7] = system: phosphorylation of Akt at Thr308 in AsPC-1; assay: as above; details: 5 μM, FBS 1 h
Procedure: as §1, §6

[8] = system: PLCγ1 Tyr783 phosphorylation in AsPC-1; assay: Western blot, EGF-induced phosphorylation of PLCγ1 at Tyr783; details: 5 μM, 30 min, then EGF 25 ng/mL 10 min
Procedure: as §3, §5

SMILES	effect on phosphorylation of Aurora A at Thr288 [1]	effect on phosphorylation of Aurora A at Thr288 [2]	effect on phosphorylation of PLK1 at Thr210 [3]	effect on phosphorylation of PLK1 at Thr210 [4]	effect on EGF-induced activation of PLCγ1 (Tyr783) [5]	effect on FBS-induced phosphorylation of Akt at Thr308 [6]	effect on FBS-induced phosphorylation of Akt at Thr308 [7]	effect on EGF-induced activation of PLCγ1 (Tyr783) [8]
CCN1CCN(C(=O)Cc2ccc(Nc3ncc(F)c(Nc4ccc(C(=O)Nc5ccccc5Cl)cc4)n3)cc2)CC1 [Aur I]	efficiently reduced	efficiently reduced	reduction in the phosphorylation of PLK1	reduction in the phosphorylation of PLK1				
CNc1nc(-c2ccc3c(N)n[nH]c3c2)cc(N2C[C@@H](C(=O)NC3CCCCC3)CC[C@H]2C)n1 [GSK2334470]					strongly reduced	efficiently reduced	efficiently reduced	strongly reduced
